Laboratory results as given in paper PMC5573420, “Correlation between human ether‐a‐go‐go‐related gene channel inhibition and action potential prolongation” (British Journal of Pharmacology, 2017).
“And” between values parts separate entries of the source, which are not always exact repeats. Identical values can stand only once. “Also recorded” adds a separate entry of the source. Like-named read-outs stand apart in the source and are kept apart here.

Key:
hERG channels = hERG channels (Homo sapiens, UniProt Q12809); assay: hERG current inhibition, automated planar patch clamp in HEK293 cells stably expressing hERG
Chain of hERG channels (Q12809 whole entry): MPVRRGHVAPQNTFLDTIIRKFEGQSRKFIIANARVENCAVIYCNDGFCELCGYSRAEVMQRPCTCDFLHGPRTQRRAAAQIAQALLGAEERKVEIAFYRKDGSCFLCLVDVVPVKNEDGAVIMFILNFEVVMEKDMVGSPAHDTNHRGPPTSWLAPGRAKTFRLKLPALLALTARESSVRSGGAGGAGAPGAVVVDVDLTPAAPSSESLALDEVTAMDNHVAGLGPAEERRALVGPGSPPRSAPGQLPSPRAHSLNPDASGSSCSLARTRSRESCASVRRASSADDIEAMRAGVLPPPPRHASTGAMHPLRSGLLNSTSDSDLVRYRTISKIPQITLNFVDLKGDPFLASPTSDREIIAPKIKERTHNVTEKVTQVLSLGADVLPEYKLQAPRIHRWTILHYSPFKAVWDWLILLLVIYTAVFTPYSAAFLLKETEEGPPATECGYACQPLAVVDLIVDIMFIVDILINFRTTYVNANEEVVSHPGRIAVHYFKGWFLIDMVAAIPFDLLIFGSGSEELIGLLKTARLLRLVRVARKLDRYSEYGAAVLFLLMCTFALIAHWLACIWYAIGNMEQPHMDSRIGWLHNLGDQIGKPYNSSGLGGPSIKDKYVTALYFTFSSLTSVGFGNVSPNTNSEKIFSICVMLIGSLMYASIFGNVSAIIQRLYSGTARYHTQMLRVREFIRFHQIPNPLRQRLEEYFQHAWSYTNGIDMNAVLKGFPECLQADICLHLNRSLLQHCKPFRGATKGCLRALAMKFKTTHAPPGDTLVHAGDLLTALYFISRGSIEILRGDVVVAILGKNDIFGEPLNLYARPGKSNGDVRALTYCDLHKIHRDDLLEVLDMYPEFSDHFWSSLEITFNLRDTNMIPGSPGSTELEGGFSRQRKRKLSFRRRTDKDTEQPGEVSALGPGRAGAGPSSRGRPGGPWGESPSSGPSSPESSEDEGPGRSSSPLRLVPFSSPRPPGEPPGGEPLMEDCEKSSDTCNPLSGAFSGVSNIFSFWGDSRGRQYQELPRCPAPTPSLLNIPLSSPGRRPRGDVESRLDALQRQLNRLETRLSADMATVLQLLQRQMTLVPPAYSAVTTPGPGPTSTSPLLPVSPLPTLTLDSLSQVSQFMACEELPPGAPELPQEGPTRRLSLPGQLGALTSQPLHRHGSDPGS
Procedure: (§1) Currents were low‐pass filtered at 10 kHz using the internal Bessel filter and sampled at 25 kHz. The extracellular solution for hERG current recording contained 140 mM NaCl, 4 mM KCl, 2 mM CaCl2, 1 mM MgCl2,5 mM D‐glucose and 10 mM HEPES (pH 7.4) (Sigma‐Aldrich). The intracellular solution for hERG current recording contained 50 mM KCl, 10 mM NaCl, 60 mM KF, 20 mM EGTA and 10 mM HEPES (pH 7.2). The extracellular solution for measuring sodium currents in HEK cells stably expressing the human clone of Nav1.5 (GenBank M77235) contained 4 mM KCl, 20 mM NaCl, 1.8 mM CaCl2, 0.75 mM MgCl2, 5 mM HEPES, 120 mM choline chloride and pH 7.4 using NaOH. The intracellular solution for sodium current recording contained 120 mM CsF, 20 mM CsCl, 5 mM EGTA, 5 mM HEPES and pH 7.4 using CsOH. All chemicals were obtained from Sigma‐Aldrich Chemie GmbH (Taufkirchen, Germany). The compound solutions were applied by means of the automated NPC‐16 Patchliner planar patch‐clamp platform.
Data are presented as mean ± SEM for at least five cells from two different batches or for three independent measurements with HEK293 cells.
The concentration–inhibition relationships were analysed by plotting the normalized values of peak tail current versus peak tail steady current in the presence of the respective cumulatively applied compound concentrations (Figure 4B, C). Data points were fitted using Hill equation.

hiPSC-CMs = assay: Optical measurement of action potential duration (APD90) in hiPSC-CMs using voltage-sensitive dye di-4-ANEPPS; conditions: for Maximal AP prolongation: maximal level over concentrations tested
Procedure: The plates were then incubated at 37°C, 5% CO2. Forty‐eight hours post‐thaw, 100% of the plating medium was replaced with CDI Maintenance Medium (CDI, CMC‐100‐120‐001), and further, 100% media changes were performed every 2 days after that.
Afterwards, the medium containing VSD was replaced by fresh serum‐free medium, and the cells were returned to the incubator. The multi‐well plate was placed in an environmentally controlled stage incubator (37°C, 5% CO2, water‐saturated air atmosphere) (Okolab Inc, Burlingame, CA, USA) of the CelIOPTIQ platform (Clyde Biosciences Ltd, Glasgow, Scotland). The di‐4‐ANEPPS fluorescence signal was recorded from a 0.2 × 0.2 mm area using a 40× (NA 0.6) objective lens. Excitation wavelength was 470 ± 10 nm using a light‐emitting diode (LED), and emitted light was collected by two photomultipliers (PMTs) at 510–560 and 590–650 nm respectively. LED, PMT, associated power supplies and amplifiers were supplied by Cairn Research Ltd (Kent, UK). […] A 20 s recording was then taken 30 min after exposure to the drug or vehicle with only one concentration applied per well. The records were subsequently analysed offline using proprietary software (CellOPTIQ). The procedure was repeated from four to five times, and parallel matched control (vehicle) measurements were taken on cardiomyocytes with equivalent concentrations of vehicle (DMSO). AP parameters were measured, including APD at 50, 75 and 90% repolarization (APD50, APD75 and APD90 respectively). Data are given as % change from control for the treated groups (vehicle, control and drug). This allowed a single comparison to be made at each concentration, and every experiment was performed with its own set of controls (vehicle). No data were used more than once.

hERG potassium channels = conditions: cited from earlier work
Nav1.5 = Nav1.5 (Homo sapiens, UniProt Q14524); assay: Sodium current inhibition in HEK cells stably expressing Nav1.5, planar patch clamp
Chain of Nav1.5 (Q14524 whole entry): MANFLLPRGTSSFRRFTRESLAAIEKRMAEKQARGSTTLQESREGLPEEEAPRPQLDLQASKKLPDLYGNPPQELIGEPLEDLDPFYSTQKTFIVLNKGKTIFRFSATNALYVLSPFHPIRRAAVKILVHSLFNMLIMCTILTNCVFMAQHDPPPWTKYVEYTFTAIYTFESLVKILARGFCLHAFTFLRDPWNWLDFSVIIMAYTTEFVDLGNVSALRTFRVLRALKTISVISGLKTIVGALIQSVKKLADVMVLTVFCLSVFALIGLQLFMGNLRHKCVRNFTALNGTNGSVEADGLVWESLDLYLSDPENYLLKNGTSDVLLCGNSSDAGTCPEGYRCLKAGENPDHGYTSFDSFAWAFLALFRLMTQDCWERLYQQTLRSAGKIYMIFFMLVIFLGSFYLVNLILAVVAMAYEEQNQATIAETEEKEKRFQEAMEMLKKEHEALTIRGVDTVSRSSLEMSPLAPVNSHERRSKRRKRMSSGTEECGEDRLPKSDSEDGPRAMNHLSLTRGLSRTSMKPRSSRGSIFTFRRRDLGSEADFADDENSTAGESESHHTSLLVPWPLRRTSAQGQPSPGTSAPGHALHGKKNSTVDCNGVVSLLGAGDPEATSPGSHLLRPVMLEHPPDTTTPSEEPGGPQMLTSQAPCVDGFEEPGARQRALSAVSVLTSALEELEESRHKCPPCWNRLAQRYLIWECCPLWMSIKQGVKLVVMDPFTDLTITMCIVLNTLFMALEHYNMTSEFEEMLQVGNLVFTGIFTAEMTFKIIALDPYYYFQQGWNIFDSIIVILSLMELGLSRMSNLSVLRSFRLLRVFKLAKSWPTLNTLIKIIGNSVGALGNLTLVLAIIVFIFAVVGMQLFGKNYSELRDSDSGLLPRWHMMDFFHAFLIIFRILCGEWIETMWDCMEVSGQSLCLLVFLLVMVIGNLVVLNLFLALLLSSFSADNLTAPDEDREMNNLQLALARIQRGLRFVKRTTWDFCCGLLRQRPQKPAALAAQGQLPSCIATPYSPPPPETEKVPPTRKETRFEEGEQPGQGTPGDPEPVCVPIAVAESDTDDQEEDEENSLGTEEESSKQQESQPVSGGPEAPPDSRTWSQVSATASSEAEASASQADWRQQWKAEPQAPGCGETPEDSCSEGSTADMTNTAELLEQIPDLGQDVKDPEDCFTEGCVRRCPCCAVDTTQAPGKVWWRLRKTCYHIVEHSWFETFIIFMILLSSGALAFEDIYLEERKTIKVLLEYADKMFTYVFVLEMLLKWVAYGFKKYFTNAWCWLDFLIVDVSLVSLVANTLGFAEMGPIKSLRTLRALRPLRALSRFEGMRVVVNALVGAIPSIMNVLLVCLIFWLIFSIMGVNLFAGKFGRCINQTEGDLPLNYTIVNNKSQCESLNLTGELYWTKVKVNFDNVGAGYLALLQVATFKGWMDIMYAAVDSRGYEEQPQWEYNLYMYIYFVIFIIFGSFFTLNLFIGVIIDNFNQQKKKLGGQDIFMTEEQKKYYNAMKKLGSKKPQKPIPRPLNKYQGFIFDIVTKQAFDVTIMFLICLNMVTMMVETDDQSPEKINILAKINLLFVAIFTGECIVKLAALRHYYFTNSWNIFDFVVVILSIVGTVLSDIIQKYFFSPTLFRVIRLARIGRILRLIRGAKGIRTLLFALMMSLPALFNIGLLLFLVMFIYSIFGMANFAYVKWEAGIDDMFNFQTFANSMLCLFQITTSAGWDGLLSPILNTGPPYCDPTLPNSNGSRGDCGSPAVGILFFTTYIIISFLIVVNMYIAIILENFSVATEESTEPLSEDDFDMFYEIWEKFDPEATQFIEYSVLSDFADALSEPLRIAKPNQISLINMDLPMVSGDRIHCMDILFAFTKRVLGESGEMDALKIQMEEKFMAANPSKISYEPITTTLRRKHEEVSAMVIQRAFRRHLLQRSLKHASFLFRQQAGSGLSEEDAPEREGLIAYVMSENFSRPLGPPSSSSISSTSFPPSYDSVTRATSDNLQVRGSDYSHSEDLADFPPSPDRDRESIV
Procedure: as §1

[1] = molecular target: Cav1.2 (rabbit α1-subunit with β2a and α2-δ1) (Oryctolagus cuniculus, UniProt P15381); assay: in vitro; conditions: rabbit
Procedure: (§2) The transfection of tsA‐201 cells was performed using the FUGENE6 Transfection Reagent (Roche Diagonstics GmbH, Mannheim, Germany) following standard protocols. The tsA‐201 cells were used until passage number 15. […] The extracellular bath solution (in mM: BaCl2 20, MgCl2 1, HEPES 10, choline‐Cl 90) was titrated to pH 7.4 with methanesulfonic acid. […] The drugs were applied to cells under voltage clamp using a microminifold perfusion system. Ca^2+ channel block was estimated as peak IBa inhibition during a train of short (50 ms) test pulses from −80 mV at a frequency of 0.2 Hz. Patch clamp experiments to study hERG, Nav1.5 and Cav1.2 currents were performed at room temperature (22–25°C). All data were digitized and saved to disc. Current traces were filtered at 5 kHz and sampled at 10 kHz. The pClamp software package (Version 7.0 Axon Instruments, Inc.) was used for data acquisition and preliminary analysis. Microcal Origin 7.0 was used for analysis, and sigmoidal curves were fitted using the Hill equation.
(§3) Use‐dependent channel inhibition was studied during trains of 1 Hz and 50 ms test pulses (from −80 to +10 mV). After the application of 20 test pulses in control (absence of drug), the cells were incubated for 3 min with drug at rest. Peak current inhibition during the first pulse (1st, Figure 6C) in the presence of the drug reflects ‘resting state’ block. Additional current inhibition during a subsequently applied pulse train illustrates use‐dependent block. Peak current inhibition in control and drug are compared in Figure 6D.

[2] = molecular target: rabbit CaV1.2 α1-subunit with β2a and α2-δ1 (Oryctolagus cuniculus, UniProt P15381); assay: Barium current (IBa) inhibition through Cav1.2 in transfected tsA-201 cells, manual patch clamp; conditions: for Resting state and use-dependent block of Cav1.2: 1 Hz trains of 50 ms pulses after 3 min incubation at rest; for Cav1.2 IC50 (peak IBa inhibition): rabbit, pH 7.4
Procedure: as §2, §3

[3] = Homo sapiens, 0.5 h, read-out: Changes in APD90 in hiPSC-CMs
[4] = Homo sapiens, read-out: D150 (concentration that prolongs the AP by 50%), APD90 in hiPSC-CMs
[5] = read-out: Ki binding studies, radioligand binding, ref Shagufta et al 2009
[6] = Nav1.5 IC50 (peak INa inhibition), holding potential -140 mV, 0.2 Hz
[7] = pH 7.4, Cav1.2 IC50 (peak IBa inhibition)
[8] = Homo sapiens, 0.5 h, read-out: Changes in APD90 in hiPSC-CMs, 1 nM, 30 min exposure
[9] = Homo sapiens, 0.5 h, read-out: Changes in APD90 in hiPSC-CMs, 10 nM, 30 min exposure
[10] = Homo sapiens, 0.5 h, read-out: Changes in APD90 in hiPSC-CMs, 30 nM, 30 min exposure
[11] = Homo sapiens, read-out: D150 (concentration that prolongs the AP by 50%)
[12] = Homo sapiens, 0.5 h, read-out: Changes in APD90 in hiPSC-CMs, 100 nM, 30 min exposure
[13] = Homo sapiens, 0.5 h, read-out: Changes in APD90 in hiPSC-CMs, 300 nM, 30 min exposure

Row | Compound | IC50 (hERG channels) | activity at 0.01 µM (hiPSC-CMs; [3]) | activity at 0.1 µM (hiPSC-CMs; [3]) | activity at 0.3 µM (hiPSC-CMs; [3]) | activity at 1 µM (hiPSC-CMs; [3]) | EC (50% APD prolongation) (hiPSC-CMs; [4]) | Incidence of EADs (hiPSC-CMs; hiPSC-CMs) | Ki (hERG potassium channels; [5]) | activity at 0.001 µM (hiPSC-CMs; [8]) | activity at 0.01 µM (hiPSC-CMs; [9]) | activity at 0.03 µM (hiPSC-CMs; [10]) | Maximal AP prolongation (hiPSC-CMs; hiPSC-CMs) | EC (50% APD prolongation) (hiPSC-CMs; [11]) | further results
1 | CN(CCOc1ccccc1)CCc1ccccc1 [Dofe30] | 297 ± 77.5 nM | 99% | 105% | 190% | 140% | 0.213 µM | without (if any) incidence of EADs | > 10000 nM | – | – | – | – | – | activity at 0.03 µM (hiPSC-CMs; [3]): 92%
2 | Cc1ccc(OCCN(C)CCc2ccccc2)cc1 [Dofe43] | – | 167% | 156% | 175% | 390% | 0.0993 µM | without (if any) incidence of EADs | – | – | – | – | – | – | –
3 | CN(CCOc1ccc(Cl)c(Cl)c1)CCc1ccccc1 [Dofe44] | 38.1 ± 12.6 nM | 90% | 83% | 87% | 92% | > 0.6 µM | – | 2.4 ± 2.2 nM | – | – | – | – | – | Shift of Nav1.5 concentration-response curve towards lower concentrations (Nav1.5; -80 mV versus -140 mV holding potential): fivefold; IC50 (Nav1.5; Nav1.5 IC50 (peak INa inhibition), holding potential -80 mV): 4700 ± 2000 nM; IC50 (Nav1.5; [6]): 23300 ± 1900 nM; IC50 [1, 7]: > 100000 nM; Resting state and use-dependent block of Cav1.2 [2]: No use‐dependent block; Cav1.2 IC50 (peak IBa inhibition) [2]: > 200000 nM; Effect on APD90 / AP prolongation (in words) (hiPSC-CMs; hiPSC-CMs): did not affect APD90 even at 1 μM; also recorded: did not induce prolongation of AP
4 | CN(CCOc1ccc(Cl)cc1)CCc1ccc(Cl)cc1 [Dofe31] | – | 100% | 108% | 214% | 296% | 0.151 µM | – | – | – | – | – | – | – | Incidence of EADs (hiPSC-CMs): without (if any) incidence of EADs; activity at 0.001 µM (hiPSC-CMs; [3]): 127%; activity at 0.03 µM (hiPSC-CMs; [3]): 103%
5 | CN(CCOc1ccc(NS(C)(=O)=O)cc1)CCc1ccc(NS(C)(=O)=O)cc1 [Dofetilide, reference compound] | – | – | – | – | – | 4e-05 µM | incidence of EADs at concentrations of 10, 30 and 100 nM | – | 246% | 641% | 827% | – | – | Spontaneous rate of myocyte contraction (hiPSC-CMs; 100 nM, hiPSC-CMs): dramatically increased; activity at 0.0001 µM (hiPSC-CMs; Homo sapiens, 0.5 h, read-out: Changes in APD90 in hiPSC-CMs, 0.1 nM, 30 min exposure): 191%; Ki (hERG potassium channels): 4.1 ± 0.9 nM
6 | CN(CCOc1ccc(Cl)cc1)CCc1ccccc1 [Dofe41] | – | 140% | 144% | 162% | 262% | 0.157 µM | without (if any) incidence of EADs | – | – | – | – | – | – | –
7 | Cc1ccc(CCN(C)CCOc2ccc(C)cc2)cc1 [Dofe33] | – | – | – | – | – | – | – | – | – | – | – | 250% | – | Effect on APD90 / AP prolongation (in words) (hiPSC-CMs): negligible effect on APD90 prolongation until 100 nM
8 | CN(CCCCOc1ccc([N+](=O)[O-])cc1)CCc1ccc([N+](=O)[O-])cc1 [Dofe81] | 10.7 nM | – | – | – | – | – | incidence of EADs at the higher concentrations | – | 117% | 389% | 858% | ≤ 1000% | 0.0025 µM | Ki (hERG potassium channels): 1.8 ± 1.6 nM
9 | CN(CCCOc1ccc([N+](=O)[O-])cc1)Cc1ccc([N+](=O)[O-])cc1 [Dofe78] | 28.2 ± 4.9 nM | 116% | 420% | 300% | 417% | 0.02 µM | incidence of EADs at the higher concentrations | 5.1 ± 1.9 nM | – | – | – | ≤ 1000% | – | –
10 | CCN(CCOc1ccc([N+](=O)[O-])cc1)CCc1ccc([N+](=O)[O-])cc1 [Dofe54] | 2.6 ± 0.4 nM | – | – | – | – | – | incidence of EADs at the higher concentrations | 1.2 ± 0.6 nM | 107% | – | 702% | ≤ 1000% | 0.0043 µM | activity at 0.1 µM (hiPSC-CMs; [12]): 710%
11 | CN(CCOc1ccc([N+](=O)[O-])cc1)CCc1ccccc1 [Dofe45] | – | 71% | 89% | 95% | 215% | 0.538 µM | without (if any) incidence of EADs | – | – | – | – | – | – | IC50 (Nav1.5; [6]): 69700 ± 1000 nM; IC50 (Nav1.5; Nav1.5 IC50 used for AP simulation, value entered in in silico hiPSC-CM AP model (Figure 8C)): 8900 nM and 10000 nM; IC50 (Nav1.5; human, pH 7.4, Nav1.5 IC50 (peak INa inhibition)): 6400 ± 1000 nM; IC50 [1, 7]: 190 ± 3 nM; IC50 ([1]; pH 7.4, Cav1.2 IC50 used for AP simulation): 200 nM; Peak current decay after 20 pulses at 1 Hz (use-dependent block) ([2]; 100 nM, 50 ms pulses from -80 to +10 mV, control 12 ± 2%): 42 ± 6%; Resting state and use-dependent block of Cav1.2 [2]: pronounced resting state block and additional use‐dependent block; Cav1.2 IC50 (peak IBa inhibition) [2]: 192 ± 28 nM; Effect on APD90 / AP prolongation (in words) (hiPSC-CMs; hiPSC-CMs): only slightly prolonged the AP; also recorded: slightly prolonged the AP at high concentrations
12 | CN(CCOc1ccc([N+](=O)[O-])cc1)CCc1ccc([N+](=O)[O-])cc1 [Dofe35] | 22.1 nM | – | – | – | – | – | incidence of EADs at the higher concentrations | – | 102% | 159% | 770% | ≤ 1000% | 0.0083 µM | activity at 0.1 µM (hiPSC-CMs; [12]): 746%; activity at 0.3 µM (hiPSC-CMs; [13]): 650%; Ki (hERG potassium channels): 5.7 ± 3 nM
13 | O=[N+]([O-])c1ccc(CCN(CCF)CCOc2ccc([N+](=O)[O-])cc2)cc1 [Dofe60] | – | – | – | – | – | – | incidence of EADs at the higher concentrations | – | 95% | 112% | 185% | ≤ 1000% | 0.0213 µM | activity at 0.1 µM (hiPSC-CMs; [12]): 771%; activity at 0.3 µM (hiPSC-CMs; [13]): 413%
